Measurements published in PMC6298966, “HAI Peptide and Backbone Analogs—Validation and Enhancement of Biostability and Bioactivity of BBB Shuttles” (Scientific Reports, 2018).
Where two headings read alike, the source gives them in different places. Residues, ends and D or L forms follow the SMILES beside them.

Assays:
Caco-2 cells [1] = test: Caco-2 intestinal barrier model assay; details: for Caco-2 transport: Table 2; for Caco-2 transport / Caco-2 T (%): 2 h at 37 °C, HBSS, 50 μM, RP-HPLC; for Detection by MALDI-TOF MS in acceptor wells: Caco-2 assay, after 2 h; for Caco-2 T (%): Table 1
Description: (§2) In a subsequent step we evaluated the transport capacity of these peptides using two in vitro barrier models, namely in an intestine (Caco-2 assay)[41] and a BBB model[39],[40] […] In these models, two compartments are separated by a membrane containing a monolayer of endothelial cells which mimics either the intestinal barrier or the BBB. One compartment contains the peptide, which is incubated for 2 h. The amount of peptide in each compartment is then analyzed to determine apparent permeability (Papp, in cm/s) and transport (T, in %). The integrity of the compound in the acceptor compartment is assessed by mass spectrometry (MS).
(§3) The ability of peptides to overcome the intestinal barrier was tested using Caco-2 cells. […] Briefly, experiments were done with cells (passage between 60 and 80) seeded on 4.67 cm^2 filters at a density of 5.25·10^4 cell/cm^2. Peptides dissolved in HBSS were incubated for 2 h at a 50 μM concentration with cell layers at 37 °C and 5% CO2. After the experiment, the content of each compartment was directly analyzed by HPLC and then transport (in %) and Papp were determined.

rat astrocytes [2] = test: Internalization of Cf-labeled peptides by rat astrocytes (CLSM, flow cytometry); assay type: cell-based; details: for Internalization with respect to the parent version (HAI): 50 μM; for Internalization with respect to the parent version (HAI) / Internalization profile among candidates: 3 h, 37 °C; for Internalization profile among candidates: Cf-labeled peptides 50 μM (R8 15 μM)
[3] = Peptide stability in human serum; assay type: in vitro ADME; details: male, human serum diluted with HBSS, 24 h, RP-HPLC; for half-life: human serum
Description: Nevertheless, peptides formed by L-amino acids have a short in vivo half-life in serum, which can reduce their potential bioactivity. The sensitivity of this peptide to proteases was tested at a concentration of 150 μM in HBSS/human serum 90:10 (v/v) for 24 h. At several time points, an aliquot was extracted, precipitated serum proteins with MeOH and then analyzed by RP-HPLC.
Peptides were dissolved in 1 mL of HBSS buffer/human serum (from human male AB plasma; Sigma-Aldrich) 10:90 (v/v) at a final concentration of 200 µM and incubated at 37 °C for 24 h. Aliquots of 50 µL were extracted at a range of incubation times and treated with 200 µL of cold CH3OH (4 °C) to precipitate serum proteins. After 30 min, samples were centrifuged at 13,000 g and 4 °C for 30 min. Supernatants were analyzed by RP-HPLC-PDA and MALDI-TOF MS, using similar procedures as for the quantification of the in vitro cell-based BBB model.

[4] = test system: bovine brain endothelial cells (BBECs); test: Internalization of Cf-labeled peptides by BBECs (CLSM, flow cytometry); assay type: cell-based; details: for Internalization with respect to the parent version (HAI): 50 μM; for Internalization with respect to the parent version (HAI) / Internalization profile among candidates: 3 h, 37 °C; for Internalization profile among candidates: Cf-labeled peptides 50 μM (R8 15 μM)
[5] = In vitro bovine BBB cell-based model assay; details: BBB Papp, 200 μM, RP-HPLC; for Papp at 2 h, 200 μM: bovine
Description: (§4) In these models, two compartments are separated by a membrane containing a monolayer of endothelial cells which mimics either the intestinal barrier or the BBB. One compartment contains the peptide, which is incubated for 2 h. The amount of peptide in each compartment is then analyzed to determine apparent permeability (Papp, in cm/s) and transport (T, in %). The integrity of the compound in the acceptor compartment is assessed by mass spectrometry (MS).
(§5) This assay was an adapted model[10] of the method previously published by Gaillard and de Boer[52]. Briefly, TEER was measured in all transwells (TEER > 100 Ω·cm^2), before performing the assay. […] The apical compartment was filled with 200 μL of the solution containing the peptide, and 800 µL of Ringer-HEPES was poured into the basal well. Three replicates of each peptide were assayed. The plate was left for 2 h in the incubator at 37 °C. Finally, the samples were collected and analyzed or frozen until analysis. LY fluorescence was measured in a 96-well plate with a Fluoroskan Ascent Microplate Fluorometer (Thermo Fisher Scientific).
(§6) In vitro Transport of AuNPs in using a Bovine BBB Cell-Based Model Assay. To assess the
(§7) capacity of HAI to cross the BBB, this peptide was conjugated to AuNPs and then assay ed in an in
vitro BBB cell-based model.

[6] = test system: in vitro bovine BBB model; test: In vitro bovine BBB cell-based model assay; details: for BBB T (%): 200 μM, RP-HPLC
Description: as §4, §5, §6, §7
vitro BBB cell-based model.

[7] = Caco-2 intestinal barrier model assay; details: human, Caco-2
Description: as §2, §3

rat astrocytes [8] = test: MTT toxicity assay in rat astrocytes; assay type: cell-based; details: 50 μM, 24 h
Description: (§1) The assay was performed in 96-well plates, adding 3,150 cells to each well in 100 μL (immortalized cell line –i.e. BBECs) or 7,000 cells in 100 μL (primary cultures –i.e. rat astrocytes), seeded 24 h before performing the experiment. Cells were incubated with each peptide at a range of concentrations (20, 50 and 500 μM) in cellular medium for 24 h at 37 °C and 5% CO2. After 22 h, MTT (3-(4,5-dimethylthiazol-2-yl)−2,5-diphenyltetrazolium bromide) was added to a final concentration of 0.5 mg/mL. The cells with peptides and MTT were incubated for further 2 h. The medium was then discarded and 200 μL of 2-propanol was added to each well to dissolve the purple formazan, product of the conversion of MTT by the mitochondrial enzyme […]. The plate was kept in an orbital shaker for 30 min (15 rpm) to ensure the complete dissolution of formazan. Finally, absorbance was measured at 570 nm and cell viability percentages were calculated dividing the absorbance value of cells treated with a given peptide by the absorbance value of untreated cells. Experiments for each peptide were carried out by triplicate. Cells incubated with 1% SDS were used as control of 0% viability (value subtracted to all samples before viability calculus per each peptide).

[9] = test system: bovine brain endothelial cells (BBECs); test: MTT toxicity assay in BBECs; assay type: cell-based; details: 50 μM, 24 h
Description: as §1

Caco-2 cells [10] = test system: Caco-2 cells
Description: as §2, §3

in vitro = details: bovine
Description: as §4, §5, §6, §7
vitro BBB cell-based model.

[11] = test system: in vitro bovine BBB model
Description: as §4, §5, §6, §7
vitro BBB cell-based model.

in vitro human BBB model = test: In vitro human BBB cell-based model assay; assay type: in vitro ADME; details: 50, 250 and 1250 μM
Description: The discrepancy between internalization and transport of (NMe)HAI is probably due to an increase in lipophilicity after methylation of the backbone, thereby enhancing internalization by passive diffusion but not favoring the transcytosis. To ensure that rD-HAI crosses the BBB through active transport, we proceeded to test its mechanism of transport using a human model of the BBB.
This assay was performed using the model published by Cecchelli and co-workers[53]. Endothelial cells and pericytes were defrosted in gelatin-coated Petri dishes (Corning). Pericytes and endothelial cells were cultured in DMEM pH 6.8 or in supplemented endothelial cell growth medium (Sciencells), respectively. After 48 h, pericytes (50,000 cells/well) and endothelial cells (80,000 cells/well) were seeded in gelatin-coated 12-well plates or in Matrigel-coated 12-well Transwell inserts (Corning), respectively. Medium was changed every 2–3 days and assays were performed 7–8 days after seeding. […] […] Then, 500 µL of the compound and 1,500 µL of Ringer-HEPES alone were introduced in the apical or in the basolateral compartments, respectively. The plates were set on at 37 °C for 2 h. The solutions from both compartments were then recovered and quantified by HPLC and identified by MALDI-TOF.

Compound: CC[C@H](C)[C@@H](C(=O)N(C)[C@@H](Cc1ccc(O)cc1)C(=O)N1CCC[C@H]1C(=O)N[C@@H](CCCNC(=N)N)C(=O)N(C)[C@@H](Cc1c[nH]cn1)C(N)=O)N(C)C(=O)[C@H](C)NC(=O)[C@@H](N)Cc1c[nH]cn1 [(NMe)HAI, H-HA(NMe)I(NMe)YPR(NMe)H-NH2]
- Caco-2 transport (Caco-2 cells [1]): 0.200 ± 0.003
- Internalization with respect to the parent version (HAI) (rat astrocytes [2]): two-fold increase in internalization
- half-life [3]: > 24 h
- Internalization with respect to the parent version (HAI) [4]: two-fold increase in internalization
- Papp at 2 h, 200 μM ([5]; Table 2, 2 h at 37 °C): 11.7 ± 1.3 ×10⁻⁶ cm/s
- BBB T (%) ([6]; Table 2, 2 h at 37 °C): 13.9 ± 1.6%

Compound: CC[C@H](C)[C@H](NC(=O)[C@H](C)NC(=O)[C@@H](N)Cc1c[nH]cn1)C(=O)N[C@@H](Cc1ccc(O)cc1)C(=O)N1CCC[C@H]1C(=O)N[C@@H](CCCNC(=N)N)C(=O)N[C@@H](Cc1c[nH]cn1)C(N)=O [HAI, H-HAIYPRH-NH2]
- Detection by MALDI-TOF MS in acceptor wells (Caco-2 cells [1]): detected
- Caco-2 T (%) (Caco-2 cells [1]): 0.7 ± 0.3%
- Caco-2 transport (Caco-2 cells [1]): 0.7 ± 0.3
- Papp at 2 h, 50 μM [7]: 0.0002 ± 8e-05 ×10⁻⁶ cm/s
- Toxicity (MTT assay) (rat astrocytes [8]): not toxic
- Internalization in presence of transferrin (Tf) (rat astrocytes [2]; Cf-HAI 50 μM, flow cytometry): promoted by the addition of Tf
- half-life at 150 μM ([3]; 150 μM in HBSS/human serum 90:10 (v/v)): ~5 min
- Internalization in presence of transferrin (Tf) ([4]; Cf-HAI 50 μM, flow cytometry): promoted by the addition of Tf
- Internalization at increasing concentrations of peptide ([4]; range of concentrations of Cf-HAI): saturation of internalization
- Papp at 2 h, 200 μM ([5]; Table 1, 2 h at 37 °C): 18 ± 2 ×10⁻⁶ cm/s
- Papp at 2 h, 200 μM ([5]; Table 2, 2 h at 37 °C): 9 ± 5 ×10⁻⁶ cm/s
- BBB T (%) ([6]; Table 1, 2 h at 37 °C): 16 ± 3%
- BBB T (%) ([6]; Table 2, 2 h at 37 °C): 10 ± 3%
- Toxicity (MTT assay) [9]: not toxic

Compound: N=C(N)NCCC[C@H](NC(=O)[C@H](CCCNC(=N)N)NC(=O)[C@H](CCCNC(=N)N)NC(=O)[C@H](CCCNC(=N)N)NC(=O)[C@H](CCCNC(=N)N)NC(=O)[C@H](CCCNC(=N)N)NC(=O)[C@H](CCCNC(=N)N)NC(=O)[C@@H](N)CCCNC(=N)N)C(=O)O [Peptide R8]
- Detection by MALDI-TOF MS in acceptor wells (Caco-2 cells [1]): detected
- Caco-2 T (%) (Caco-2 cells [1]): 0%
- Internalization profile among candidates (rat astrocytes [2]): highest internalization profiles
- Internalization profile among candidates [4]: highest internalization profiles
- Papp ([5]; Table 1, 2 h at 37 °C): 0.6 ± 0.06 ×10⁻⁶ cm/s
- BBB T (%) ([6]; Table 1, 2 h at 37 °C): 0.68 ± 0.07%

Compound: CC[C@H](C)[C@H](NC(=O)[C@H](CC(=O)O)NC(=O)[C@H](CS)NC(=O)[C@@H]1CCCN1C(=O)[C@@H](NC(=O)CNC(=O)[C@@H]1CCCN1C(=O)[C@H](CCCNC(=N)N)NC(=O)[C@@H]1CCCN1C(=O)[C@H](CC(N)=O)NC(=O)[C@H](CCC(=O)O)NC(=O)[C@@H]1CCCN1C(=O)[C@H](CCSC)NC(=O)[C@H](Cc1c[nH]c2ccccc12)NC(=O)[C@@H](NC(=O)[C@@H](NC(=O)[C@@H](N)Cc1ccc(O)cc1)[C@@H](C)O)[C@@H](C)CC)[C@@H](C)O)C(=O)N[C@@H](Cc1ccccc1)C(=O)N[C@H](C(=O)N[C@@H](CC(N)=O)C(=O)N[C@@H](CO)C(=O)N[C@@H](CCCNC(=N)N)C(=O)NCC(=O)N[C@@H](CCCCN)C(=O)N[C@@H](CCCNC(=N)N)C(=O)N[C@@H](C)C(=O)N[C@@H](CO)C(=O)N[C@@H](CC(N)=O)C(=O)NCC(=O)O)[C@@H](C)O [RVG]
- Caco-2 Papp (Caco-2 cells [10]): 0 ×10⁻⁶ cm/s
- Caco-2 T (%) (Caco-2 cells [10]): 0%
- Papp (in vitro): 0.28 ± 0.02 ×10⁻⁶ cm/s
- BBB T (%) [11]: 0.29 ± 0.03%

Compound: CC(C)C[C@H](NC(=O)[C@@H](N)C(C)C)C(=O)N[C@@H](CCCNC(=N)N)C(=O)N1CCC[C@H]1C(=O)N1CCC[C@H]1C(=O)N1CCC[C@H]1C(=O)N[C@H](C(=O)N[C@@H](CC(C)C)C(=O)N[C@@H](CCCNC(=N)N)C(=O)N1CCC[C@H]1C(=O)N1CCC[C@H]1C(=O)N1CCC[C@H]1C(=O)N[C@H](C(=O)N[C@@H](CC(C)C)C(=O)N[C@@H](CCCNC(=N)N)C(=O)N1CCC[C@H]1C(=O)N1CCC[C@H]1C(=O)N1CCC[C@H]1C(=O)O)C(C)C)C(C)C [SAP, H-(VLRPPP)3-OH] (H-VLRPPPVLRPPPVLRPPP-OH)
- Caco-2 T (%) (Caco-2 cells [1]): 0%
- Papp at 2 h, 200 μM ([5]; Table 1, 2 h at 37 °C): 5.5 ± 1.5 ×10⁻⁶ cm/s
- BBB T (%) ([6]; Table 1, 2 h at 37 °C): 5 ± 3%

Compound: CC[C@@H](C)[C@@H](NC(=O)[C@@H](Cc1ccc(O)cc1)NC(=O)[C@H]1CCCN1C(=O)[C@@H](CCCNC(=N)N)NC(=O)[C@H](N)Cc1c[nH]cn1)C(=O)N[C@H](C)C(=O)N[C@H](Cc1c[nH]cn1)C(N)=O [rD-HAI, H-hrpyiah-NH2]
- Transport at increasing concentrations (in vitro human BBB model): saturation of transport
- Caco-2 transport (Caco-2 cells [1]): 0.4 ± 0.3
- Papp at 2 h, 50 μM [7]: 0.00012 ± 0.0001 ×10⁻⁶ cm/s
- Internalization with respect to the parent version (HAI) (rat astrocytes [2]): maintained the internalization rate
- half-life [3]: > 24 h
- Internalization with respect to the parent version (HAI) [4]: maintained the internalization rate
- Papp at 2 h, 200 μM ([5]; Table 2, 2 h at 37 °C): 14 ± 2 ×10⁻⁶ cm/s
- BBB T (%) ([6]; Table 2, 2 h at 37 °C): 17 ± 3%
- BBB transport rate relative to the parent version ([6]; vs HAI): around 1.5 times

Compound: Penetratin
- Internalization profile among candidates (rat astrocytes [2]): highest internalization profiles
- Internalization profile among candidates [4]: highest internalization profiles

Compound: TAT: HIV TAT 48–57 peptide, derived from the transcriptional trans-activator protein of HIV-1; cell-penetrating peptide (GRKKRRQRRR; UniProt P04608 48-57, looked up, fragment)
- Caco-2 T (%) (Caco-2 cells [1]): 0%
- Internalization profile among candidates (rat astrocytes [2]): highest internalization profiles
- Internalization profile among candidates [4]: highest internalization profiles
- BBB T (%) ([6]; Table 1, 2 h at 37 °C): 0%
- Detection by MALDI-TOF MS in acceptor wells ([6]; after 2 h): not detected
